From article doi:10.1101/2025.10.14.682402v1 (biorxiv, 2025)

Legend:
[1] = target: T1, ULK1 (Homo sapiens, UniProt O75385); experiment: ADP-Glo kinase assay; type: biochemical
T1 sequence (O75385 1-1050): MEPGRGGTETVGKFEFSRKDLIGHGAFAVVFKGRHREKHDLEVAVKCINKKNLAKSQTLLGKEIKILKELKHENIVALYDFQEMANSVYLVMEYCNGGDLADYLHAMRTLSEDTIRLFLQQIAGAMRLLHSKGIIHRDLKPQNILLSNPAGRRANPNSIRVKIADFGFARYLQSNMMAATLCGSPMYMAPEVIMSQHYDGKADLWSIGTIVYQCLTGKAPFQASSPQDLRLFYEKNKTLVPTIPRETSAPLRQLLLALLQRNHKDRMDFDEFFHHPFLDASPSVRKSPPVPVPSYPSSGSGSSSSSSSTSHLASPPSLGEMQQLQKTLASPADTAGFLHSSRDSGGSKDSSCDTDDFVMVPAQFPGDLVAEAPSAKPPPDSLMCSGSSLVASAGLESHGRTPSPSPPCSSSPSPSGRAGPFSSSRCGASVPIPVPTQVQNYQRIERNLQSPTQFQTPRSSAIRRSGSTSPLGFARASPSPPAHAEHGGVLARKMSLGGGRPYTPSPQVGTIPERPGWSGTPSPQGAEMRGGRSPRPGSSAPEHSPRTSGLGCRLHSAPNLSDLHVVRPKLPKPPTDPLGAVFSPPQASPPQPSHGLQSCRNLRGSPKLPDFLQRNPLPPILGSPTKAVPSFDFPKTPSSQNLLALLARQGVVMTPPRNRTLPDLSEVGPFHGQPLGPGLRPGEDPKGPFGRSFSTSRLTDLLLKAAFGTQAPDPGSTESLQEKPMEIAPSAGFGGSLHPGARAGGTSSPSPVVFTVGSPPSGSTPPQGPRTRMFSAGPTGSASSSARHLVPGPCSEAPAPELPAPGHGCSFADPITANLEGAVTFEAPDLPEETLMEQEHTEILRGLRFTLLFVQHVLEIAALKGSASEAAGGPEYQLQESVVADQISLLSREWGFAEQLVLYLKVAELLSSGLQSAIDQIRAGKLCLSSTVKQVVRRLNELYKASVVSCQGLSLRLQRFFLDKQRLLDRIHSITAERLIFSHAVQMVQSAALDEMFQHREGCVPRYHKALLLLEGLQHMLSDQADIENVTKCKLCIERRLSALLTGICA

[2] = target: T2, ULK2 (Homo sapiens, UniProt Q8IYT8); experiment: biochemical
T2 sequence (Q8IYT8 1-1036): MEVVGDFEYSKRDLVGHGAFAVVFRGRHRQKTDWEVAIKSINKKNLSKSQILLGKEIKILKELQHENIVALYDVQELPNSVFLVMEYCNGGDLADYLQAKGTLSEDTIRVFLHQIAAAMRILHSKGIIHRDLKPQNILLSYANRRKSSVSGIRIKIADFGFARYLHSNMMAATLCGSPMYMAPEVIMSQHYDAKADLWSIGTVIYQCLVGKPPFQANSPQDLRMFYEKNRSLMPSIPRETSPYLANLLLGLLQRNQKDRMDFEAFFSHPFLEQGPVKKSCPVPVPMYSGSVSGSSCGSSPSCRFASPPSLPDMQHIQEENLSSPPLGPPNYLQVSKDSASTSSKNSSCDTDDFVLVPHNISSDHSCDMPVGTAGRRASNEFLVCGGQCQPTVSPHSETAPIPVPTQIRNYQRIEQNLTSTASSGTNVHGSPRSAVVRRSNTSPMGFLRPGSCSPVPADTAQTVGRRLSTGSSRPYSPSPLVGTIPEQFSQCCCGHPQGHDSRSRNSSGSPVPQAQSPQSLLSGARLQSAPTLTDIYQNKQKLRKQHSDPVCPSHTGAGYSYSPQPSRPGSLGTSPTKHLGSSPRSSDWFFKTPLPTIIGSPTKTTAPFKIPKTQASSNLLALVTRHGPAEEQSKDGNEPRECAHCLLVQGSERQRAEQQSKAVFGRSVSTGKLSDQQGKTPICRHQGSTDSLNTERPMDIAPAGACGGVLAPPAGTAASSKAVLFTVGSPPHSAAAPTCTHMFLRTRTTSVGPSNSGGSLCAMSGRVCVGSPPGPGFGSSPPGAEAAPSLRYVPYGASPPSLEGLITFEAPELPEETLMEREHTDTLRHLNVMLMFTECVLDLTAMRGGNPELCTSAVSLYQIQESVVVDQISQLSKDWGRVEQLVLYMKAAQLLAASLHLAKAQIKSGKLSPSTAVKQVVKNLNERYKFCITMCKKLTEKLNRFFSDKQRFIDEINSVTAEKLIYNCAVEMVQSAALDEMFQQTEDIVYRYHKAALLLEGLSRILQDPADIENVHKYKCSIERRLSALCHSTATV

[3] = target: T3, kinase domain of ULK1 (Homo sapiens, UniProt O75385); settings: binder
T3 sequence (O75385 1-283 limits assumed): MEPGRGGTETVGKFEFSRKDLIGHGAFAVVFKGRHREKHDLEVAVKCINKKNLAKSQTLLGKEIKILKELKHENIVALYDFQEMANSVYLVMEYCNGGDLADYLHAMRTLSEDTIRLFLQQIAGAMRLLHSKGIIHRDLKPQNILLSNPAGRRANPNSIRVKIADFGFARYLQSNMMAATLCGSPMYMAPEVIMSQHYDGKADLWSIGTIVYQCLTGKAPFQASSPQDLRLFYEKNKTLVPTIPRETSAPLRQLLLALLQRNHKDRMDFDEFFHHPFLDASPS

[4] = target: T4, kinase domain of ULK2 (Homo sapiens, UniProt Q8IYT8); settings: binder
T4 sequence (Q8IYT8 1-276 limits assumed): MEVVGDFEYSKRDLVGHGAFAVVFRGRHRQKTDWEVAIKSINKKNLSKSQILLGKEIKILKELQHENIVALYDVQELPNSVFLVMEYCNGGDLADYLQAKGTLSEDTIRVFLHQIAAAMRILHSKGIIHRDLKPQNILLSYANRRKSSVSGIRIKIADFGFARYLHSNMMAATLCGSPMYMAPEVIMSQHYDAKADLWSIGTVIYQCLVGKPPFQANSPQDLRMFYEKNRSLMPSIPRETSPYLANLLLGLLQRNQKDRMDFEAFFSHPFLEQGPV

[5] = target: T1, ULK1; experiment: biochemical
[6] = target: T5, ULK1 (NanoBRET) (Homo sapiens, UniProt O75385); experiment: NanoBRET cellular target engagement; type: cell-based
T5 sequence (O75385 1-1050): T1 sequence (O75385 1-1050)

CNC(=O)c1ccccc1Nc1nc(Nc2ccc(N3CCOCC3)cc2OC)ncc1Br [6b, 2-(5-Bromo-2-(2-methoxy-4-morpholinophenylamino)pyrimidin-4-ylamino)-N-methylbenzamide]
IC50 [1]: 141 nM
IC50 [2]: > 3000 nM
ULK1 PTS (ºC) [3]: 5.60 ± 0.23 °C
ULK2 PTS (ºC) [4]: 4.13 ± 0.02 °C

CNC(=O)c1ccccc1Nc1nc(Nc2ccc(N3CCOCC3)cc2OC)ncc1C(F)(F)F [6c, 2-(2-(2-Methoxy-4-morpholinophenylamino)-5-(trifluoromethyl)pyrimidin-4-ylamino)-N-methylbenzamide]
IC50 [1]: 62 nM
IC50 [2]: 1340 ± 198 nM
ULK1 PTS (ºC) [3]: 6.55 ± 0.12 °C
ULK2 PTS (ºC) [4]: 6.50 ± 0.09 °C

CNC(=O)c1ccccc1Nc1nc(Nc2ccc3c(c2)CC(=O)N3)ncc1Cl [6f, 2-(5-Chloro-2-(2-oxoindolin-5-ylamino)pyrimidin-4-ylamino)-N-methylbenzamide]
IC50 [1]: 21 nM
IC50 [2]: > 3000 nM
ULK1 PTS (ºC) [3]: 0.20 ± 0.13 °C
ULK2 PTS (ºC) [4]: 0.48 ± 0.06 °C

CNC(=O)c1ccccc1Nc1nc(Nc2ccc3[nH]ccc3c2)ncc1Cl [6g, 2-(2-(1H-indol-5-ylamino)-5-chloropyrimidin-4-ylamino)-N-methylbenzamide]
IC50 [5]: 94 ± 43 nM
IC50 [2]: > 3000 nM
ULK1 PTS (ºC) [3]: 6.78 ± 0.19 °C
ULK2 PTS (ºC) [4]: 5.86 ± 0.12 °C

CNC(=O)c1ccccc1Nc1nc(Nc2ccc3[nH]ccc3c2)ncc1Br [6h, 2-(2-(1H-indol-5-ylamino)-5-bromopyrimidin-4-ylamino)-N-methylbenzamide]
IC50 [5]: 6 ± 1 nM
IC50 [2]: > 3000 nM
ULK1 PTS (ºC) [3]: 8.08 ± 0.53 °C
ULK2 PTS (ºC) [4]: 7.49 ± 0.46 °C

CNC(=O)c1ccccc1Nc1nc(Nc2cc3c(cc2C)OCO3)ncc1Cl [6i, 2-(5-Chloro-2-(6-methylbenzo[d][1,3]dioxol-5-ylamino)pyrimidin-4-ylamino)-N-methylbenzamide]
IC50 [5]: 2700 ± 1780 nM
IC50 [2]: > 3000 nM
ULK1 PTS (ºC) [3]: 3.37 ± 0.38 °C
ULK2 PTS (ºC) [4]: 2.45 ± 0.20 °C

CNC(=O)c1ccccc1Nc1nc(Nc2ccc3c(c2)OCCO3)ncc1Cl [6j, 2-(5-Chloro-2-(2,3-dihydrobenzo[b][1,4]dioxin-6-ylamino)pyrimidin-4-ylamino)-N-methylbenzamide]
IC50 [1]: 218 nM
IC50 [2]: > 3000 nM
ULK1 PTS (ºC) [3]: 6.05 ± 0.13 °C
ULK2 PTS (ºC) [4]: 4.43 ± 0.33 °C

CNC(=O)c1ccccc1Nc1nc(Nc2cc(OC)ccc2C)ncc1Cl [6k, 2-(5-Chloro-2-(5-methoxy-2-methylphenylamino)pyrimidin-4-ylamino)-N-methylbenzamide]
IC50 [1]: 292 nM
IC50 [2]: 893 ± 454 nM
ULK1 PTS (ºC) [3]: 5.75 ± 0.12 °C
ULK2 PTS (ºC) [4]: 3.38 ± 0.14 °C

CNC(=O)c1ccccc1Nc1nc(Nc2cc(OC)ccc2C)ncc1C(F)(F)F [6l, 2-(2-(5-Methoxy-2-methylphenylamino)-5-(trifluoromethyl)pyrimidin-4-ylamino)-N-methylbenzamide]
IC50 [1]: 38 nM
IC50 [2]: 1960 ± 101 nM
ULK1 PTS (ºC) [3]: 8.90 ± 0.17 °C
ULK2 PTS (ºC) [4]: 7.08 ± 0.25 °C

CNC(=O)c1ccccc1Nc1nc(Nc2cc(OC)ccc2C)ncc1Br [6m, 2-(5-Bromo-2-(5-methoxy-2-methylphenylamino)pyrimidin-4-ylamino)-N-methylbenzamide]
IC50 [1]: 32 nM
IC50 [2]: > 3000 nM
ULK1 PTS (ºC) [3]: 6.78 ± 0.13 °C
ULK2 PTS (ºC) [4]: 4.28 ± 0.19 °C

CNC(=O)c1ccccc1Nc1nc(Nc2cccc(OC)c2)ncc1Cl [6n, 2-(5-Chloro-2-(3-methoxyphenylamino)pyrimidin-4-ylamino)-N-methylbenzamide]
IC50 [5]: 50 ± 25 nM
IC50 [2]: > 3000 nM
ULK1 PTS (ºC) [3]: 6.53 ± 0.87 °C
ULK2 PTS (ºC) [4]: 1.38 ± 0.33 °C

CNC(=O)c1ccccc1Nc1nc(Nc2cc(OC)c(OC)c(OC)c2)ncc1Cl [6o, 2-(5-Chloro-2-(3,4,5-trimethoxyphenylamino)pyrimidin-4-ylamino)-N-methylbenzamide]
IC50 [1]: 8 nM
IC50 [6]: 4.05 nM
ULK1 PTS (ºC) [3]: 14.25 ± 0.11 °C
ULK2 PTS (ºC) [4]: 12.01 ± 0.05 °C

CNC(=O)c1ccccc1Nc1nc(Nc2cc(N3CCOCC3)cc(N3CCOCC3)c2)ncc1C(F)(F)F [6r, 2-(2-(3,5-dimorpholinophenylamino)-5-(trifluoromethyl)pyrimidin-4-ylamino)-N-methylbenzamide]
IC50 [6]: 17 nM
IC50 [5]: 15 ± 1 nM
IC50 [2]: 19 ± 3 nM
ULK1 PTS (ºC) [3]: 17.28 ± 0.06 °C
ULK2 PTS (ºC) [4]: 16.70 ± 0.05 °C

CNC(=O)c1ccccc1Nc1nc(Nc2cc(N3CCOCC3)cc(N3CCOCC3)c2)ncc1Cl [6s, 2-(5-Chloro-2-(3,5-dimorpholinophenylamino)pyrimidin-4-ylamino)-N-methylbenzamide]
IC50 [5]: 38 ± 4 nM
IC50 [2]: 180 ± 9 nM
ULK1 PTS (ºC) [3]: 13.28 ± 0.40 °C
ULK2 PTS (ºC) [4]: 11.50 ± 0.27 °C

CNC(=O)c1ccccc1Nc1nc(Nc2cc(N3CCOCC3)cc(N3CCOCC3)c2)ncc1Br [6t, 2-(5-Bromo-2-(3,5-dimorpholinophenylamino)pyrimidin-4-ylamino)-N-methylbenzamide]
IC50 [5]: 8 ± 1 nM
IC50 [2]: 59 ± 6 nM
ULK1 PTS (ºC) [3]: 16.83 ± 0.12 °C
ULK2 PTS (ºC) [4]: 16.23 ± 0.15 °C

FC(F)(F)c1cnc(Nc2ccc3c(c2)CCNC3)nc1NC1CC1 [SBP-5147, reference compound]
IC50 [6]: 47 ± 11 nM

O=C1CCc2cc(Nc3ncc(C(F)(F)F)c(NC4CC4)n3)ccc2N1 [SBP-7501, reference compound]
IC50 [6]: 167 ± 31 nM

SBP-7455 [reference compound]
IC50 [6]: 328 ± 43 nM
